Measurements from PMC7897990, “TriTOX: A novel Trichomonas vaginalis assay platform for high-throughput screening of compound libraries” (International Journal for Parasitology: Drugs and Drug …, 2021).
Read-outs that look alike come from different tables or passages of the source. Positions of bridges follow the written chain, without caps; N, C: chain ends. Non-standard residues stand in square brackets, D forms with d. Residues, ends and D or L forms follow the SMILES beside them. *: point of attachment. Ileψ(thiazoline)Cys = CC[C@H](C)[C@H](N)C1=N[C@H](C(=O)*)CS1; Phe(ol) = N[C@H](CO)Cc1ccccc1; dOrn = NCCC[C@@H](N)C(=O)O; Aib = CC(C)(N)C(=O)O

Columns and labels:
[1] = system: Trichomonas vaginalis G3 trophozoites
[2] = system: nontumorigenic neonatal foreskin fibroblast (NFF) cell line
[3] = parasite screen at 1 µg/mL, replicate 1
[4] = parasite screen at 1 µg/mL, replicate 2
[5] = NFF_NS1 screen at 5 µg/mL, NFF cells
[6] = HTS single concentration, parasite screen 1 µg/mL, replicate 1
[7] = HTS single concentration, parasite screen 1 µg/mL, replicate 2
[8] = NFF_NS1 screen 5 µg/mL, single concentration
[9] = HTS, parasite screen at 1 µg/mL, replicate 1
[10] = HTS, parasite screen at 1 µg/mL, replicate 2

Compound | T.vaginalis_%inb_Rep1 [1, 6] [%] | T.vaginalis_%inb_Rep2 [1, 7] [%] | NFF_Activity [2, 8] | other results
Cc1cc(O)c2c(c1)C(=O)c1c(c(O)cc(O)c1-c1c(O)cc(O)c3c1C(=O)c1cc(C)cc(O)c1C3=O)C2=O [BIA-S1662] |  |  |  | T.vaginalis_%inb_Rep1 [1, 3]: 9.89%; T.vaginalis_%inb_Rep2 [1, 4]: 5.90%; NFF_Activity [2, 5]: I (otherwise these were reported as inactive (I))
CC[C@H](C)[C@H]1O[C@]2(C=C[C@@H]1C)C[C@@H]1C[C@@H](C/C=C(\C)[C@@H](O[C@H]3C[C@H](OC)[C@@H](O[C@H]4C[C@H](OC)[C@@H](O)[C@H](C)O4)[C@H](C)O3)[C@@H](C)/C=C/C=C3\CO[C@@H]4[C@H](O)C(C)=C[C@@H](C(=O)O1)[C@]34O)O2 [BIA-A1010] | 14.32 | 14.17 | I (otherwise these were reported as inactive (I)) | 
CC(C)C[C@H]1C(=O)O[C@H](C(C)C)C(=O)N(C)[C@@H](CC(C)C)C(=O)O[C@H](C(C)C)C(=O)N(C)[C@@H](CC(C)C)C(=O)O[C@H](C(C)C)C(=O)N(C)[C@@H](CC(C)C)C(=O)O[C@H](C(C)C)C(=O)N1C [BIA-B1557] | 15.24 | 16.12 | I (otherwise these were reported as inactive (I)) | 
CC1=C[C@H]2C(=O)O[C@H]3C[C@@H](C/C=C(\C)C[C@@H](C)/C=C/C=C4\CO[C@H]([C@@H]1O)[C@@]42O)O[C@]1(C3)C[C@H](O)[C@H](C)[C@@H](/C(C)=C/C(C)C)O1 [Nemadectin] |  |  |  | T.vaginalis_%inb_Rep1 ([1]; HTS replicate 1, parasite screen 1 µg/mL): 11.56%; T.vaginalis_%inb_Rep2 ([1]; HTS replicate 2, parasite screen 1 µg/mL): 13.53%; NFF_Activity ([2]; NFF fibroblasts, single concentration 5 µg/mL): I (otherwise these were reported as inactive (I))
COC(=O)c1cccc2oc(-c3cccc4oc(-c5ccccc5O)nc34)nc12 [UK-1] |  |  |  | T.vaginalis_%inb_Rep1 [1, 9]: 10.64%; T.vaginalis_%inb_Rep2 [1, 10]: 15.36%; NFF_Activity ([2]; NFF fibroblast screen at 5 µg/mL, A = active, I = inactive): I (otherwise these were reported as inactive (I))
CC(=O)NCCc1c[nH]c2ccc(O)cc12 [BIA-A1738] | 13.41 | 15.18 | I (otherwise these were reported as inactive (I)) | 
CC(=O)OC[C@]12C[C@H](OC(=O)CC(C)C)C(C)=C[C@H]1O[C@@H]1[C@H](O)[C@@H](OC(C)=O)[C@@]2(C)[C@]12CO2 [BIA-T1933] |  |  |  | T.vaginalis_%inb_Rep1 [1, 3]: 5.61%; T.vaginalis_%inb_Rep2 [1, 4]: 2.80%; NFF_Activity [2, 5]: I (otherwise these were reported as inactive (I))
CC[C@H](C)[C@H](N)C1=N[C@H](C(=O)N[C@@H](CC(C)C)C(=O)N[C@H](CCC(=O)O)C(=O)N[C@H](C(=O)N[C@H]2CCCCNC(=O)[C@H](CC(N)=O)NC(=O)[C@@H](CC(=O)O)NC(=O)[C@H](Cc3cnc[nH]3)NC(=O)[C@@H](Cc3ccccc3)NC(=O)[C@H]([C@@H](C)CC)NC(=O)[C@@H](CCCN)NC2=O)[C@@H](C)CC)CS1 [BIA-B1784] ({Ileψ(thiazoline)Cys}-L[dE]IK[dOrn]I[dF]H[dD]N; lactam 4-C) | 15.89 | 9.69 | I (otherwise these were reported as inactive (I)) | 
Dihydrocyclosporin A |  |  |  | T.vaginalis_%inb_Rep1 [1, 9]: 11.52%; T.vaginalis_Absorbance_Rep1 ([1]; HTS, parasite screen at 1 µg/mL, replicate 1, raw absorbance): 0.923; T.vaginalis_%inb_Rep2 [1, 10]: 13.52%; T.vaginalis_Absorbance_Rep2 ([1]; HTS, parasite screen at 1 µg/mL, replicate 2, raw absorbance): 0.807; NFF_Activity ([2]; NFF_NS1 screen at 5 µg/mL): I (otherwise these were reported as inactive (I))
CC(=O)Nc1c2sscc-2n(C)c1=O [BIA-T1138] |  |  |  | T.vaginalis_%inb_Rep1 [1, 3]: 100.00%; T.vaginalis_%inb_Rep2 [1, 4]: 97.56%; NFF_Activity [2, 5]: A (active (A) compounds having >25% inhibitory activity)
CC1(C)CC[C@]2(C(=O)O)CC[C@]3(C)C(=CC[C@@H]4[C@@]5(C)C[C@@H](O)[C@H](O)[C@@](C)(CO)[C@@H]5CC[C@]43C)[C@@H]2C1 [BIA-A1754] | 13.25 | 12.44 | I (otherwise these were reported as inactive (I)) | 
CC(=O)NC(C)(C)C(=O)N1CCC[C@H]1C(=O)NC(C)(C)C(=O)N[C@@H](C)C(=O)NC(C)(C)C(=O)N[C@@H](C)C(=O)N[C@@H](CCC(N)=O)C(=O)NC(C)(C)C(=O)N[C@H](C(=O)NC(C)(C)C(=O)NCC(=O)N[C@@H](CC(C)C)C(=O)NC(C)(C)C(=O)N1CCC[C@H]1C(=O)N[C@H](C(=O)NC(C)(C)C(=O)NC(C)(C)C(=O)N[C@@H](CCC(N)=O)C(=O)N[C@@H](CCC(N)=O)C(=O)N[C@H](CO)Cc1ccccc1)C(C)C)C(C)C [BIA-A1543] (Ac-[Aib]P[Aib]A[Aib]AQ[Aib]V[Aib]GL[Aib]PV[Aib][Aib]QQ[Phe(ol)]) | 13.73 | 13.74 | I (otherwise these were reported as inactive (I)) | 
CC(=O)OC[C@]12[C@H](O)C(=O)C(C)=C[C@H]1O[C@@H]1[C@H](O)C[C@@]2(C)[C@]12CO2 [BIA-A1922] | 7.13 | 15.54 | I (otherwise these were reported as inactive (I)) | 
CO[C@H]1/C=C\C=C(/C)C(=O)NC2=CC(=O)C(NCCN(C)C)=C(C[C@@H](C)C[C@H](OC)[C@H](O)[C@@H](C)/C=C(\C)[C@@H]1OC(N)=O)C2=O [BIA-A1924] | 5.66 | 62.10 | A (active (A) compounds having >25% inhibitory activity) | 
CSC[S@@+]([O-])CC(CO)NC(=O)/C=C/c1c(C)[nH]c(=O)[nH]c1=O (some centres unmarked) [BIA-S1798] |  |  |  | T.vaginalis_%inb_Rep1 [1, 3]: 68.56%; T.vaginalis_%inb_Rep2 [1, 4]: 88.33%; NFF_Activity [2, 5]: A (active (A) compounds having >25% inhibitory activity)
